Measurements published in the supplement of paper PMC4932681.

Experiments:
Assay in all cases: viability inhibition at highest dose (% inhibition); higher = more growth inhibition
ZR-75-1 Tam1 = conditions: 4-OH-tamoxifen in medium 1 µM; 72 h
Outline: (§1)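 Breast cancer cell lines and their resistant derivatives were seeded into 384-well plates containing library drugs at five concentrations across a 10 000-fold range, with resistant lines kept in medium with 1 μM of the selecting drug. After 72 h at 37 °C, CellTiter-Glo viability was read on a PHERAstar and normalised to vehicle-only and positive controls. Logistic dose–response fits in the Breeze pipeline gave drug sensitivity score, relative IC50 (curve midpoint) and top-dose inhibition.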

BT-474 Tam2 = conditions: 4-OH-tamoxifen in medium 1 µM; 72 h
Outline: as §1

BT-474 Tam1 = conditions: 4-OH-tamoxifen in medium 1 µM; 72 h
Outline: as §1

T-47D = conditions: 72 h
Outline: as §1

ZR-75-1 Tam2 = conditions: 4-OH-tamoxifen in medium 1 µM; 72 h
Outline: as §1

MCF-7 Tam1 = conditions: 4-OH-tamoxifen in medium 1 µM; 72 h
Outline: as §1

ZR-75-1 = conditions: 72 h
Outline: as §1

BT-474 = conditions: 72 h
Outline: as §1

T-47D Tam2 = conditions: 4-OH-tamoxifen in medium 1 µM; 72 h
Outline: as §1

T-47D Tam1 = conditions: 4-OH-tamoxifen in medium 1 µM; 72 h
Outline: as §1

MCF-7 = conditions: 72 h
Outline: as §1

Row | Compound | viability inhibition at highest dose (ZR-75-1 Tam1) | viability inhibition at highest dose (BT-474 Tam2) | viability inhibition at highest dose (BT-474 Tam1) | viability inhibition at highest dose (T-47D; 4-OH-tamoxifen in medium 0 µM) | viability inhibition at highest dose (T-47D; 4-OH-tamoxifen in medium 1 µM) | viability inhibition at highest dose (ZR-75-1 Tam2) | viability inhibition at highest dose (MCF-7 Tam1) | viability inhibition at highest dose (ZR-75-1; 4-OH-tamoxifen in medium 0 µM) | viability inhibition at highest dose (ZR-75-1; 4-OH-tamoxifen in medium 1 µM) | viability inhibition at highest dose (BT-474; 4-OH-tamoxifen in medium 0 µM) | viability inhibition at highest dose (BT-474; 4-OH-tamoxifen in medium 1 µM) | viability inhibition at highest dose (T-47D Tam2) | viability inhibition at highest dose (T-47D Tam1) | viability inhibition at highest dose (MCF-7; 4-OH-tamoxifen in medium 0 µM) | viability inhibition at highest dose (MCF-7; 4-OH-tamoxifen in medium 1 µM)
1 | O=P(O)(O)C(O)(Cn1ccnc1)P(=O)(O)O [Zoledronic acid] (drug 10000 nM) | -0.251 | -6.19 | 2.75 | -11.4 | -6.56 | -9.06 | -6.7 | -6.71 | -4.06 | -0.0303 | -3.42 | 1.06 | -5.82 | -12.6 | -12.2
2 | CC(C)n1nc(-c2ccc3oc(N)nc3c2)c2c(N)ncnc21 [INK128] (drug 1000 nM) | 52.7 | 44.1 | 72.6 | 66.7 | 46.4 | 66 | 35.9 | 61.2 | 51.9 | 36.7 | 62.9 | 36.7 | 58.8 | 70.3 | 52.4
3 | C=CC(=O)Nc1cc2c(Nc3ccc(F)c(Cl)c3)ncnc2cc1OCCCN1CCOCC1 [Canertinib] (drug 10000 nM) | 37.1 | 93.5 | 90 | 38.9 | 24.2 | 44.3 | 28 | 41.4 | 35.5 | 80.1 | 92.3 | 63.2 | 46.6 | 64.2 | 71.1
4 | C[C@@H]1C=C2C(=O)O[C@@H]3CC[C@H](C1)[C@]23O [Galiellalactone] (drug 50000 nM) | 4.34 | 3.76 | 50.9 | 59.8 | 54.7 | 1.46 | -3.64 | -10.5 | -3.25 | -0.142 | 54.5 | 40.6 | 41.4 | 72.3 | 14.4
5 | CC1=C(/C=C/C(C)=C/C=C/C(C)=C/C(=O)O)C(C)(C)CCC1 [Tretinoin] (drug 10000 nM) | 5.21 | 7.81 | -5.43 | 3.78 | 2.8 | 4.01 | 15.9 | 0.707 | -8.55 | -1.01 | -18.6 | 14.5 | 14.5 | -12.3 | 14.5
6 | COc1cc2ncnc(Nc3ccc(F)c(Cl)c3)c2cc1OCCCN1CCOCC1 [Gefitinib] (drug 10000 nM) | 22.2 | 96.8 | 97.7 | 12.1 | 8.3 | 18.6 | 14.2 | 13.1 | 27.5 | 86.4 | 96.6 | 47.3 | 34.2 | 28 | 35.6
7 | CC(=O)O[C@@]12CO[C@@H]1C[C@H](O)[C@@]1(C)C(=O)[C@H](O)C3=C(C)[C@@H](OC(=O)[C@H](O)[C@@H](NC(=O)OC(C)(C)C)c4ccccc4)C[C@@](O)([C@@H](OC(=O)c4ccccc4)[C@H]21)C3(C)C [Docetaxel] (drug 1000 nM) | 6.28 | 13.4 | 38.1 | 44.4 | 8.26 | 1.01 | -2.6 | -2.11 | 1.03 | 45.8 | 62.5 | 37.3 | 27.5 | 31.6 | 24.3
8 | COC(=O)c1ccc2c(c1)NC(=O)/C2=C(\Nc1ccc(N(C)C(=O)CN2CCN(C)CC2)cc1)c1ccccc1 [Nintedanib (BIBF 1120)] (drug 10000 nM) | 7.5 | -5.56 | 30.7 | -18.3 | -16.7 | -3.8 | -3.72 | -10.8 | -9.4 | 5.93 | 24.8 | 5.71 | -2.42 | 12.4 | 3.6
9 | COc1cc(Nc2ncc3c(n2)-c2ccc(Cl)cc2C(c2c(F)cccc2OC)=NC3)ccc1C(=O)O [Alisertib (MLN8237)] (drug 10000 nM) | -1.42 | -5.31 | 13.6 | 27.3 | 28.5 | 4.01 | 16.2 | -2.57 | 9.24 | 11.6 | 34.7 | 41 | 38.9 | 17.2 | 7.64
10 | CN1CCc2c(c3ccccc3n2Cc2ccc(C(=O)NO)cc2)C1 [Tubastatin A] (drug 10000 nM) | 16.1 | 12.3 | 36.4 | 2.46 | 1.6 | 12.3 | 2.15 | 17.4 | 18.8 | 8.77 | 28.9 | 11.4 | 0.672 | 10.2 | 17.2
